Literature values as cited in patent EP1288303A1, “Inducible expression systems employing PPAR transcriptional activators” (Aventis Pharma S.A., priority 2001, dated 2003).

Settings: form not soluble in water; doses between 5 and 50 mg/kg, for example 30 mg/kg

plasma concentration: about 15 µg/ml
Compound: CN(CCOc1ccc(CC2SC(=O)NC2=O)cc1)c1ccccn1 (stereo not shown) [BRL49653, rosiglitazone]
